# Reference: US9066518B2, “Heterocyclic compounds as pesticides” (Bayer CropScience AG, priority 2009, dated 2015)
# Experiments:
# [1] = tested on: green peach aphid (Myzus persicae); assay: Myzus test (spray treatment); assay type: in vivo; conditions: foliar, 144 h, application rate 500 g/ha, after 6 days, Chinese cabbage leaf discs, read-out: activity (effect in %, aphids killed)
# Procedure: Solvents: 78 parts by weight of acetone
# • 1.5 parts by weight of dimethylformamide Emulsifier 0.5 part by weight of alkylaryl polyglycol ether
# To produce a suitable preparation of active compound, 1 part by weight of active compound is mixed with the stated amounts of solvents and emulsifier, and the concentrate is diluted with emulsifier-containing water to the desired concentration. Discs of leaves of Chinese cabbage (Brassica pekinensis) which are infested by all stages of the green peach aphid (Myzus persicae) are sprayed with an active compound preparation of the desired concentration.
# After 6 days, the effect in % is determined. 100% means that all aphids have been killed; 0% means that none of the aphids has been killed.
# [2] = logP determination (neutral / HCOOH); conditions: for chromatographic logP: HCOOH (formic acid)
Structure (SMILES),pest or weed control at 500 g/ha [1] [%],"chromatographic logP ([2]; logP (HCOOH), HCOOH)","logP ([2]; logP (neutral), neutral)",logP (HCOOH) ([2]; HCOOH),"logP ([2]; HCOOH, logP (HCOOH))"
c1cnc(-c2nccc(-c3cnn(-c4cccnc4)c3)n2)nc1 [Example 46],100,0.86,–,–,–
Fc1cncc(-n2cc(-c3cccc(-c4ncccn4)n3)cn2)c1 [Example 14],90,1.81,–,–,–
FC(F)(F)c1ccnc(-c2cnn(-c3cccnc3)c2)n1 [Example 35],80,2.23,–,–,–
N#Cc1cccc(-c2cnn(-c3cncc(F)c3)c2)n1 [Example 108],90,2.2,–,–,–
FC(F)(F)c1ccc(-c2cnn(-c3cccnc3)c2)cc1 [Example 50],90,2.98,–,–,–
O=C(NCC(F)(F)F)c1ccc(-c2cnn(-c3cccnc3)c2)nc1 [Example 87],90,1.53,1.69,–,–
ClC1(c2cccc(-c3cnn(-c4cccnc4)c3)n2)CC1 [Example 65],90,3.22,–,–,–
"c1cncc(-n2cc(-c3cc[nH]n3)cn2)c1 [Example 98, 1′-(Pyridin-3-yl)-1H,1′H-3,4′-bipyrazole]",100,0.79,–,0.78,–
CN1CCOC(c2cccc(-c3cnn(-c4cccnc4)c3)n2)=N1 [Example 58],100,1.54,1.68,–,–
Ic1cncc(-n2cc(-c3cccc(-c4ncccn4)n3)cn2)c1 [Example 37],100,2.37,–,–,–
N#Cc1cncc(-n2cc(-c3cccc(-c4ncccn4)n3)cn2)c1 [Example 88],100,1.91,–,–,–
Clc1ccc(-c2cnn(-c3cccnc3)c2)cc1 [Example 51],90,2.71,–,–,–
FC(F)(F)c1nccc(-c2cnn(-c3cccnc3)c2)n1 [Example 15],100,2.13,–,–,–
CC(=O)Nc1cccc(-c2cnn(-c3cccnc3)c2)n1 [Example 94],100,1.31,–,–,–
CC(C)C(=O)c1cccc(-c2cnn(-c3cccnc3)c2)n1 [Example 67],100,–,2.84,–,–
"FC(F)(F)C(F)(F)c1nccc(-c2cnn(-c3cccnc3)c2)n1 [Example 9, 2-(Pentafluoroethyl)-4-[1-(pyridin-3-yl)-1H-pyrazol-4-yl]pyrimidine]",100,–,–,–,2.7
CC(C)C(F)(F)c1cccc(-c2cnn(-c3cccnc3)c2)n1 [Example 66],100,–,3.22,–,–
CN1CCN(C(=O)c2cccc(-c3cnn(-c4cccnc4)c3)n2)CC1 [Example 100],100,0.46,–,–,–
c1cncc(-n2cc(-c3cccc(-c4ncco4)n3)cn2)c1 [Example 76],100,1.57,1.69,–,–
c1cncc(-n2cc(-c3cccc(C4OCC5(CCC5)O4)n3)cn2)c1 (stereo not drawn) [Example 90],100,2.37,2.53,–,–
c1cncc(-n2cc(-c3cccc(-n4cccn4)n3)cn2)c1 [Example 19],100,2.21,–,–,–
COc1cccc(-c2cnn(-c3cccnc3)c2)n1 [Example 38],100,2.12,–,–,–
Fc1cncc(-n2cc(-c3cccc(C4OCCCO4)n3)cn2)c1 [Example 73],100,2.12,2.13,–,–
c1cncc(-n2cc(-c3ccncc3)cn2)c1 [Example 101],100,0.01,1.24,–,–
CN(C)C(=O)c1nc(-c2cnn(-c3cccnc3)c2)cs1 [Example 83],100,1.51,–,–,–
